Test results reported in publication PMC6072100, “Exploring the links between peptoid antibacterial activity and toxicity” (MedChemComm, 2017).
Read-outs that look alike come from different tables or passages of the source. Square brackets hold non-standard residues; d marks the D form. Peptide text beside a SMILES is read from it. Nspe = C[C@H](NCC(=O)O)c1ccccc1; NhArg = N=C(N)NCCCCNCC(=O)O; NPentylGly = CCCCCNCC(=O)O

Columns and labels:
Assay type in all cases: cell-based
[1] = test system: Staphylococcus aureus (3R7089 strain Oxford/ATCC9144); conditions: lowest concentration completely inhibiting growth, 37 °C, 16 h; range 2–100 μM
Procedure, shortened: (§1)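 MIC by microdilution, Iso-sensitest broth, 37 °C/16 h shaking. Inoc.: A650 0.07 → 1:10. Cpd final 2–100 µM, 2-fold series. Absorbance read-out, n=3.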

[2] = test system: Staphylococcus epidermidis (laboratory strain from clinical isolate); conditions: lowest concentration completely inhibiting growth, 37 °C, 16 h; range 2–100 μM
Procedure, shortened: as §1

[3] = test system: Pseudomonas aeruginosa PA01 (ATCC 15692)
Procedure, shortened: as §1

[4] = test system: Escherichia coli K-12 wild-type strain (W3110/ATCC27325); conditions: for MIC E. coli: lowest concentration completely inhibiting growth, 37 °C, 16 h, range 2–100 μM
Procedure, shortened: as §1

[5] = lowest concentration completely inhibiting growth, 37 °C, 16 h, range 2–100 μM

For `CCCCCNCC(=O)N(CC(=O)N(CC(=O)N(CCCCN)CC(=O)N(CC(=O)N(CC(=O)N(CCCCN)CC(=O)N(CC(=O)N(CC(=O)N(CCCCN)CC(=O)N(CC(=O)N(CC(N)=O)[C@@H](C)c1ccccc1)[C@@H](C)c1ccccc1)[C@@H](C)c1ccccc1)[C@@H](C)c1ccccc1)[C@@H](C)c1ccccc1)[C@@H](C)c1ccccc1)[C@@H](C)c1ccccc1)[C@@H](C)c1ccccc1` [Peptoid 30, (NamyNspeNspe)[(NLysNspeNspe)]3], the “MIC S. aureus” value [1] was 2 µM, the “MIC S. epidermidis” value [2] was 2 µM and the “MIC P. aeruginosa” value [3, 5] was 50 µM. For the same molecule, the “MIC E. coli” value [4] was 50 µM.
For `CCCCCNCC(=O)N(CC(=O)N(CC(=O)N(CCCCC)CC(=O)N(CC(=O)N(CC(=O)N(CCCCN)CC(=O)N(CC(=O)N(CC(=O)N(CCCCN)CC(=O)N(CC(=O)N(CC(N)=O)[C@@H](C)c1ccccc1)[C@@H](C)c1ccccc1)[C@@H](C)c1ccccc1)[C@@H](C)c1ccccc1)[C@@H](C)c1ccccc1)[C@@H](C)c1ccccc1)[C@@H](C)c1ccccc1)[C@@H](C)c1ccccc1` [Peptoid 31, (NamyNspeNspe)2(NLysNspeNspe)2], the “MIC S. aureus” value [1] was 2 µM, the “MIC S. epidermidis” value [2] was 1 µM and the “MIC P. aeruginosa” value ([3]; ATCC 15692, 16 h) was >100 µM. For the same molecule, the “MIC P. aeruginosa” value [3, 5] was 100 µM and the “MIC E. coli” value [4] was >100 µM.
In the case of `CCCCCN(CC(=O)N(CC(=O)N(CC(=O)N(CCCCN)CC(=O)N(CC(=O)N(CC(N)=O)[C@@H](C)c1ccccc1)[C@@H](C)c1ccccc1)[C@@H](C)c1ccccc1)[C@@H](C)c1ccccc1)C(=O)CN(C(=O)CN(C(=O)CN(CCCCN)C(=O)CN(C(=O)CN(C(=O)CNCCCCN)[C@@H](C)c1ccccc1)[C@@H](C)c1ccccc1)[C@@H](C)c1ccccc1)[C@@H](C)c1ccccc1` [Peptoid 32, (NLysNspeNspe)2(NamyNspeNspe)(NLysNspeNspe)], the “MIC S. aureus” value [1] is reported as 6 µM, the “MIC S. epidermidis” value [2] is reported as 2 µM and the “MIC P. aeruginosa” value ([3]; ATCC 15692, 16 h) is reported as >100 µM. For the same molecule, the “MIC P. aeruginosa” value [3, 5] was 100 µM and the “MIC E. coli” value [4] was >100 µM.
For `C[C@@H](c1ccccc1)N(CC(N)=O)C(=O)CN(C(=O)CN(CCCCNC(=N)N)C(=O)CN(C(=O)CN(C(=O)CN(CCCCNC(=N)N)C(=O)CN(C(=O)CN(C(=O)CN(CCCCNC(=N)N)C(=O)CN(C(=O)CN(C(=O)CNCCCCNC(=N)N)[C@@H](C)c1ccccc1)[C@@H](C)c1ccccc1)[C@@H](C)c1ccccc1)[C@@H](C)c1ccccc1)[C@@H](C)c1ccccc1)[C@@H](C)c1ccccc1)[C@@H](C)c1ccccc1` [Peptoid 34, (NhArgNspeNspe)4] (H-[NhArg][Nspe][Nspe][NhArg][Nspe][Nspe][NhArg][Nspe][Nspe][NhArg][Nspe][Nspe]-NH2), the “MIC S. aureus” value [1] was 1 µM, the “MIC S. epidermidis” value [2] was 1 µM and the “MIC P. aeruginosa” value [3, 5] was 13 µM. For the same molecule, the “MIC E. coli” value [4] was 6 µM.
In the case of `CCCCCNCC(=O)N(CC(=O)N(CC(=O)N(CCCCNC(=N)N)CC(=O)N(CC(=O)N(CC(=O)N(CCCCC)CC(=O)N(CC(=O)N(CC(=O)N(CCCCNC(=N)N)CC(=O)N(CC(=O)N(CC(N)=O)[C@@H](C)c1ccccc1)[C@@H](C)c1ccccc1)[C@@H](C)c1ccccc1)[C@@H](C)c1ccccc1)[C@@H](C)c1ccccc1)[C@@H](C)c1ccccc1)[C@@H](C)c1ccccc1)[C@@H](C)c1ccccc1` [Peptoid 40, [(NamyNspeNspe)(NhArgNspeNspe)]2] (H-[NPentylGly][Nspe][Nspe][NhArg][Nspe][Nspe][NPentylGly][Nspe][Nspe][NhArg][Nspe][Nspe]-NH2), the “MIC S. aureus” value [1] is reported as 3 µM, the “MIC S. epidermidis” value [2] is reported as 6 µM and the “activity against P. aeruginosa (in words)” value [3] is reported as “not active”. The “MIC P. aeruginosa” value ([3]; ATCC 15692, 16 h) was >100 µM, the “MIC P. aeruginosa” value [3, 5] was 100 µM and the “activity against E. coli (in words)” value [4] was “not active”. For the same molecule, the “MIC E. coli” value [4] was >100 µM.
In the case of (NhArgNmfbNmfb)4 [Peptoid 36], the “MIC S. aureus” value [1] is reported as 2 µM, the “MIC S. epidermidis” value [2] is reported as 2 µM and the “MIC P. aeruginosa” value [3, 5] is reported as 13 µM. The “MIC E. coli” value [4] was 13 µM.
